Reference: publication PMC10367051, “Comprehensive Mechanistic View of the Hydrolysis of Oxadiazole-Based Inhibitors by Histone Deacetylase 6 (HDAC6)” (ACS Chemical Biology, 2023)

Legend:
[1] = system: HEK293/HDAC6 cell lysates (stably transfected with human HDAC6); test: Inhibitor hydrolysis in HEK293/HDAC6 cell lysates (LC-MS/MS); type: in vitro ADME; conditions: 20 μM 8, 2.5 mg mL^–1 protein, 37 °C
Description: HEK293 cells stably transduced with full-length human HDAC6 were generated following the protocol published previously.[40] Briefly, Lenti-X 293T and HEK293T cells were grown in T75 flasks in the DMEM/F-12/10% fetal bovine serum (FBS) medium under an atmosphere containing 5% CO2 at 37 °C. The Lenti-X 293T cells were transfected with the combination of pMD.2G, psPAX2, and pHR_CMV_MM320_hsHD6 (Figure S2) using Lipofectamine2000 (Invitrogen) according to the manufacturer’s protocol. Three days post-transfection, the virion-rich medium was collected by centrifugation, supplemented with polybrene (final concentration 10 μg mL^–1), and added to adherent HEK293T cells grown to 100% confluency. Three days post-infection, transduced HEK293T cells were expanded in FreeStyle 293 medium (GIBCO) supplemented with 1% FBS in an Erlenmeyer flask (suspension culture, 110 RPM). Transduction efficacy was determined by flow cytometry analysis to be >95%.
Mass spectrometry quantification of inhibitors/reaction products was carried out with a Shimadzu LCMS-8040 instrument (Shimadzu, HPLC Prominence system). […] Multiple reaction monitoring (MRM) parameters were optimized for each analyte, and corresponding major CID fragments were used for quantification. Analytes were quantified using corresponding calibration curves generated from pure compounds dissolved in water. […]

[2] = Control reaction without the enzyme (assay buffer, LC-MS/MS); type: physicochemical; conditions: 20 μM 8, assay buffer pH 7.4, 30 °C
Description: Mass spectrometry quantification of inhibitors/reaction products was carried out with a Shimadzu LCMS-8040 instrument (Shimadzu, HPLC Prominence system). Analytes were separated on a Kinetex XB-C18 2.6 μm, 100 Å column (50 × 2.1 mm; Phenomenex) in a linear 15–60% CH3CN/H2O gradient containing 0.1% formic acid at a flow rate of 0.8 mL min^–1 over 4 min. Multiple reaction monitoring (MRM) parameters were optimized for each analyte, and corresponding major CID fragments were used for quantification. Analytes were quantified using corresponding calibration curves generated from pure compounds dissolved in water.
Twenty micromolar solutions of compounds were mixed with 1 μM zHDAC6 in a 96-well plate in an assay buffer comprising 50 mM HEPES, 140 mM NaCl, and 10 mM KCl at pH 7.4. […] Four microliter aliquots of reaction mixtures were injected into the system directly from the 96-well plate, and inhibitors/reaction products were quantitated as described above.

## CS(=O)(=O)N(Cc1ccc(-c2nnc(C(F)F)o2)cn1)c1cccc(Cl)c1 [compound 8]
[1]
  efficiency of hydrolysis in HEK293/HDAC6 lysate versus HEK293 lysate: more efficient
  hydrolysis in HEK293/HDAC6 cell lysate: hydrolyzed 8 to 6 and 4
[2]
  hydrolysis in the control reaction without the enzyme: no hydrolysis was observed
